Data published in publication PMC6242907, “Molecular basis of maintaining an oxidizing environment under anaerobiosis by soluble fumarate reductase” (Nature Communications, 2018).

How the values were obtained:
[1] = target: T1, Osm1 (Saccharomyces cerevisiae, UniProt P21375, S78K/P162R); test: isothermal titration calorimetry; conditions: second FAD-binding pocket; 1 mM FAD injected into 28 µM double mutant
T1 construct: residues 32-501, N-terminal His6 tag and thrombin site in pET28a, E. coli BL21(DE3); tag removed by trypsin for crystals
T1 sequence (P21375 32-501 S78K/P162R): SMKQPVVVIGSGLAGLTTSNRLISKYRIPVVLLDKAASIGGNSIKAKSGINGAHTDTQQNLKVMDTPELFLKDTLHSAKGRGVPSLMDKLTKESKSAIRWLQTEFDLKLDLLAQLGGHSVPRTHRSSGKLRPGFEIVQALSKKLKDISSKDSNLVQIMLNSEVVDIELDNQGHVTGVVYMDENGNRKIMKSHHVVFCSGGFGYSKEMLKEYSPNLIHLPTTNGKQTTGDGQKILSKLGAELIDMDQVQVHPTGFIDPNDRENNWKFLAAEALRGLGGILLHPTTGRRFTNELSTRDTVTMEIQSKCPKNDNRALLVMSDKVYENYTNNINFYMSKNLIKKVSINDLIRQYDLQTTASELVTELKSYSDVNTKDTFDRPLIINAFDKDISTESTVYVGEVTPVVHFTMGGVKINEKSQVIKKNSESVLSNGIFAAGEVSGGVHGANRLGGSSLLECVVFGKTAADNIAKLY

[2] = target: T2, Ero1 (Saccharomyces cerevisiae, UniProt Q03103); test: free flavin reduction at […] nm; assay type: biochemical; conditions: free FAD as electron acceptor; DTT and thioredoxin as reductant, airtight, oxygen-depleted
T2 construct: residues 56-424, His6-MBP fusion from E. coli Origami B(DE3), H6-MBP cleaved off by TEV protease; FAD-containing
T2 sequence (Q03103 56-424): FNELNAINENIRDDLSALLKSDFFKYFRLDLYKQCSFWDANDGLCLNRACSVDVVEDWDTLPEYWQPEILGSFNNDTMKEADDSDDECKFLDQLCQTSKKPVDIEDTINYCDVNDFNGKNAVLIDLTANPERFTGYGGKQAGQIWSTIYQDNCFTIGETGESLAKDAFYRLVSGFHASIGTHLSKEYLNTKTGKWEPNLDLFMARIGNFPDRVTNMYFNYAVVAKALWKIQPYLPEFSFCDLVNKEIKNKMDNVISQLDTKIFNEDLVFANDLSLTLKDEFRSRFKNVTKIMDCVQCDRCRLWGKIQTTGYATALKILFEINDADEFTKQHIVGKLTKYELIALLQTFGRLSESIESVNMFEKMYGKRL

[3] = target: T3, Osm1 (Saccharomyces cerevisiae, UniProt P21375); test: X-ray crystal structure, […] Å; assay type: binding
T3 construct: residues 32-501, N-terminal His6 tag and thrombin site in pET28a, E. coli BL21(DE3); tag removed by trypsin for crystals
T3 sequence (P21375 32-501): as the sequence (P21375 32-501 S78K/P162R) above, with K47S, R131P counted along it

[4] = target: T3, Osm1; test: isothermal titration calorimetry; assay type: binding
Excerpt: isothermal titration calorimetry on Osm1 | Injection of FAD into the ITC sample cell containing holo-Osm1 created an exothermic response

SMILES	no detectable thermal response [1]	free flavin reduction at 450 nm [2]	X-ray crystal structure, 1.8 Å ([3]; first (cofactor) site, non-covalent, complex with fumarate)	Kd [4] [µM]	X-ray crystal structure, 1.8 Å ([3]; active site next to the isoalloxazine ring of cofactor FAD)
Cc1cc2nc3c(=O)[nH]c(=O)nc-3n(C[C@H](O)[C@H](O)[C@H](O)COP(=O)(O)OP(=O)(O)OC[C@H]3O[C@@H](n4cnc5c(N)ncnc54)[C@H](O)[C@@H]3O)c2cc1C [FAD]	injection of FAD into the S78K/P162R mutant did not show any detectable thermal response	Ero1 could only use free FAD, but not FMN or riboflavin, under oxygen-depleted conditions	residues, including A45, K66, N73, S74, S79, G80, V194, D260, E467, S482, and L483	4.92	–
O=C(O)/C=C/C(=O)O [fumarate]	–	–	–	–	S78, S79, H281, R326, H435, R477, and G480 from Osm1 are involved in the binding of fumarate
